The results in this text go back to paper PMC4784921, “Antioxidant Activity and α-Glucosidase Inhibitory Activities of the Polycondensate of Catechin with Glyoxylic Acid” (PLoS ONE, 2016).

≈ marks a conversion by molar mass, not a printed value.

The assay deals with T1, α-glucosidase (from Saccharomyces cerevisiae).
T1 construct: gene MAL12; commercial enzyme from Sigma (St. Louis, MO)
As to the kind of experiment: absorbance at […] nm, pNP-G hydrolysis. Format: biochemical. The conditions noted are these: pNP-G substrate (1 mL of 1 mM), 0.1 M PBS pH 6.9, 37°C, 10 min preincubation; mixed noncompetitive and anticompetitive.

A word on the IC50: it is the concentration at which inhibition is half-maximal. The compound `Oc1cc(O)c2c(c1)O[C@H](c1ccc(O)c(O)c1)[C@@H](O)C2` [catechin] yielded an IC50 of 239.27 µg/mL (≈ 824 µM).
